Source: US20260007680A1, “Compounds and Their Use as PDE4 Activators” (Mironid Limited, priority 2022, published 2026)

What follows are compounds tested on m-IMCD3 cells (assay: Inhibition of PGE2-stimulated in vitro cyst formation in 3D culture of m-IMCD3 cells (Experiment 4)). Details: Mus musculus, mIMCD3, 144 h, 10 μM test compound, mean cyst area compared to 100% for (DMSO + PGE2) and 0% for DMSO control, read-out: % Cyst area* after incubation with 10 μM test compound.
Assay type: cell-based, mouse
Experimental: HEK 293 and MDCK cells (Public Health England, Cell Culture Collections) were maintained in Dulbecco's Modified Eagle's Medium (DMEM) supplemented with 10% (v/v) fetal bovine serum (FBS) (Seralab), 2 mM L-glutamine and 100 U/ml penicillin streptomycin cocktail (ThermoFisher); termed complete media. Clonal HEK 293 cell lines were maintained in complete media supplemented with 0.6 mg/mL G418 (Enzo Life Sciences). Mouse inner medullary collecting duct (m-IMCD3) cells [American Type Culture Collection (ATCC)] were maintained in media consisting of DMEM/Hams F-12 50/50 Mix (DMEM F12; Corning) supplemented with penicillin streptomycin cocktail (100 U/ml) and FBS (10% v/v) (DMEM F12-10% FBS).
The mouse Inner Medullary Collecting Duct cell line (m-IMCD3) spontaneously forms cystic spheroids in 3D culture with a Type 1 collagen/Matrigel extracellular matrix. This process can be stimulated with agents which raise intracellular cAMP and is used as an in vitro model for the formation of cystic structures in the kidneys of patients with ADPKD.
Rat Collagen I (Fisher Scientific) is prepared on ice by neutralising with 1 M NaOH and diluting with a 2×volume of DMEM/F12+10% FBS. This is mixed 1:1.1 with ice cold Matrigel (Corning) for coating plates (coating mix), and 1:0.93 with Matrigel for cell plating (plating mix).
The assay is conducted in the wells of a 96-well plate culture dish using a total volume of 130 μL of collagen/Matrigel/DMEM F12-10% FBS suspension in growth media for each matrix plug per individual well. Initially, 30 μL of collagen/Matrigel/DMEM F12-10% FBS (coating mix) is added into the well of a 96 well plate and the collagen is set to a gel by incubating at 37° C. for at least 15 minutes. A second layer of 100 μL collagen/Matrigel suspension (plating mix) containing m-IMCD3 cells (2.75×10^6 m-IMCD3 cells per 96-well plate) is layered over the coating mix and the collagen/Matrigel/cell mix again set to a gel by incubating at 37° C. Cell cultures are maintained at 37° C. in an atmosphere of 5% CO2, 95% air.
Between 18 and 24 h after plating, test compound(s) as DMSO stock solutions [0.1% (v/v) final DMSO concentration] and PGE2 (100 nM final concentration) in DMEM F12-10% FBS are added in quadruplicate wells per condition. Media, together with the test compound and PGE2 are replenished after 2 or 3 days. After 6 days of culture z stack images of the wells are captured using the Nikon Eclipse Ti2-E microscope. Nikon General Analysis software is used to measure the following parameters in each well: the mean cyst area, the number of cysts, and the total cyst area.
PDE4 long form activators inhibited in vitro cyst formation in m-IMCD3 cells. Data are shown in FIG. 2 and Table 4 as mean cyst area (%), compared to 100% for (DMSO+PGE2) and 0% for DMSO control.
Compound `O=C(N[C@H]1CCOc2ccccc21)c1cnc2cc(C3CCNCC3)nn2c1` [Example 82, (S)—N-(chroman-4-yl)-2-(piperidin-4-yl)pyrazolo[1,5-a]pyrimidine-6-carboxamide] has an activity at 10 µM of 3%.
In the case of `CCN1CCC(c2cc3ncc(C(=O)N[C@H]4CCOc5ccccc54)cn3n2)CC1` [Example 84, (S)—N-(chroman-4-yl)-2-(1-ethylpiperidin-4-yl)pyrazolo[1,5-a]pyrimidine-6-carboxamide], the activity at 10 µM is reported as 7%.
`CN1CCC(c2cc3ncc(C(=O)NC4CCCCC4)cn3n2)CC1` [Example 86, N-cyclohexyl-2-(1-methylpiperidin-4-yl)pyrazolo[1,5-a]pyrimidine-6-carboxamide] was tested, and the activity at 10 µM was 7%.
With `CN1CCC(c2cc3ncc(C(=O)N[C@H]4CCOc5ccccc54)cn3n2)CC1` [Example 88, (S)—N-(chroman-4-yl)-2-(1-methylpiperidin-4-yl)pyrazolo[1,5-a]pyrimidine-6-carboxamide] the activity at 10 µM was 15%.
In the case of `O=C(NCc1ccc(F)cc1)c1cnc2cc(C3CCNCC3)nn2c1` [Example 89, N-(4-fluorobenzyl)-2-(piperidin-4-yl)pyrazolo[1,5-a]pyrimidine-6-carboxamide], the activity at 10 µM is reported as -3%.
Compound `Cc1c(C(=O)NC2CCC(F)(F)CC2)cnc2cc(C3CCNCC3)nn12` [Example 91, N-(4,4-difluorocyclohexyl)-7-methyl-2-(piperidin-4-yl)pyrazolo[1,5-a]pyrimidine-6-carboxamide] has an activity at 10 µM of 5%.
`CCN1CCC(c2cc3ncc(C(=O)NC4CCC(F)(F)CC4)c(C)n3n2)CC1` [Example 94, N-(4,4-difluorocyclohexyl)-2-(1-ethylpiperidin-4-yl)-7-methylpyrazolo[1,5-a]pyrimidine-6-carboxamide] showed an activity at 10 µM of 13%.
`Cc1c(C(=O)N[C@H]2CCOc3ccccc32)cnc2cc(C3CCN(C)CC3)nn12` [Example 95, N-[(4S)-3,4-dihydro-2H-1-benzopyran-4-yl]-7-methyl-2-(1-methylpiperidin-4-yl)pyrazolo[1,5-a]pyrimidine-6-carboxamide] gave an activity at 10 µM of 13%.
Work on `Cc1c(C(=O)NC2CCC(F)(F)CC2)cnc2cc(C3CCN(C)CC3)nn12` [Example 96, N-(4,4-difluorocyclohexyl)-7-methyl-2-(1-methylpiperidin-4-yl)pyrazolo[1,5-a]pyrimidine-6-carboxamide] yielded an activity at 10 µM of 11%.
With `CN1CCC(c2nc3cc(C(=O)NC4CCCC4)ccc3o2)CC1` [Example 98, N-cyclopentyl-2-(1-methylpiperidin-4-yl)benzo[d]oxazole-5-carboxamide] the activity at 10 µM was -3%.
Work on `O=C(NC1CCCC1)c1ccc2oc(N3CCNCC3)nc2c1` [Example 101, N-cyclopentyl-2-(piperazin-1-yl)benzo[d]oxazole-5-carboxamide] yielded an activity at 10 µM of 21%.
`CCN1CCN(c2nc3cc(C(=O)N[C@H]4CCOc5ccccc54)ccc3o2)CC1` [Example 102, (S)—N-(chroman-4-yl)-2-(4-ethylpiperazin-1-yl)benzo[d]oxazole-5-carboxamide] showed an activity at 10 µM of 8%.
`CCN1CCN(c2nc3cc(C(=O)NC4CCCC4)ccc3o2)CC1` [Example 103, N-cyclopentyl-2-(4-ethylpiperazin-1-yl)benzo[d]oxazole-5-carboxamide] gave an activity at 10 µM of -1%.
For `O=C(N[C@H]1CCOc2ccccc21)c1ccc2oc(N3CCN(CCO)CC3)nc2c1` [Example 106, (S)—N-(chroman-4-yl)-2-(4-(2-hydroxyethyl)piperazin-1-yl)benzo[d]oxazole-5-carboxamide], the activity at 10 µM was -3%.
In the case of `CCN1CCN(c2nc3ccc(C(=O)NC4CCCC4)cc3o2)CC1` [Example 108, N-cyclopentyl-2-(4-ethylpiperazin-1-yl)benzo[d]oxazole-6-carboxamide], the activity at 10 µM is reported as 24%.
In the case of `O=C(NC1CCC(F)(F)CC1)c1ccc2nc(N3C4CCC3CNC4)sc2n1` [Example 116, 2-(3,8-diazabicyclo[3.2.1]octan-8-yl)-N-(4,4-difluorocyclohexyl)thiazolo[5,4-b]pyridine-5-carboxamide], the activity at 10 µM is reported as -1%.
`O=C(NC1CCC(F)(F)CC1)c1cc2sc(N3C4CCC3CNC4)nc2cn1` [Example 120, 2-(3,8-diazabicyclo[3.2.1]octan-8-yl)-N-(4,4-difluorocyclohexyl)thiazolo[4,5-c]pyridine-6-carboxamide] was tested, and the activity at 10 µM was 29%.
In the case of `O=C(NC1CCCC1)c1cnc2cc(N3C4CCC3CNC4)sc2c1` [Example 121, 2-(3,8-diazabicyclo[3.2.1]octan-8-yl)-N-cyclopentylthieno[3,2-b]pyridine-6-carboxamide], the activity at 10 µM is reported as 3%.
